# Biological target: BRAF^V600E protein (Homo sapiens, UniProt P15056, V600E)
# Assay: HiBiT cellular BRAF V600E degradation assay
# Type: cell-based
# Conditions: 24 h incubation; for DC50: A375.10 cells (HiBiT tag knocked in at N-terminal of BRAF V600E), concentration at which 50% of total cellular BRAF V600E is degraded; for Emax / HiBit 24 h Emax: A375.10 cells, Emax = amount of residual protein remaining in the cell after compound treatment; for Emax: read-out: HiBit 24 h Emax
# Sequence of BRAF^V600E protein (P15056 whole entry V600E): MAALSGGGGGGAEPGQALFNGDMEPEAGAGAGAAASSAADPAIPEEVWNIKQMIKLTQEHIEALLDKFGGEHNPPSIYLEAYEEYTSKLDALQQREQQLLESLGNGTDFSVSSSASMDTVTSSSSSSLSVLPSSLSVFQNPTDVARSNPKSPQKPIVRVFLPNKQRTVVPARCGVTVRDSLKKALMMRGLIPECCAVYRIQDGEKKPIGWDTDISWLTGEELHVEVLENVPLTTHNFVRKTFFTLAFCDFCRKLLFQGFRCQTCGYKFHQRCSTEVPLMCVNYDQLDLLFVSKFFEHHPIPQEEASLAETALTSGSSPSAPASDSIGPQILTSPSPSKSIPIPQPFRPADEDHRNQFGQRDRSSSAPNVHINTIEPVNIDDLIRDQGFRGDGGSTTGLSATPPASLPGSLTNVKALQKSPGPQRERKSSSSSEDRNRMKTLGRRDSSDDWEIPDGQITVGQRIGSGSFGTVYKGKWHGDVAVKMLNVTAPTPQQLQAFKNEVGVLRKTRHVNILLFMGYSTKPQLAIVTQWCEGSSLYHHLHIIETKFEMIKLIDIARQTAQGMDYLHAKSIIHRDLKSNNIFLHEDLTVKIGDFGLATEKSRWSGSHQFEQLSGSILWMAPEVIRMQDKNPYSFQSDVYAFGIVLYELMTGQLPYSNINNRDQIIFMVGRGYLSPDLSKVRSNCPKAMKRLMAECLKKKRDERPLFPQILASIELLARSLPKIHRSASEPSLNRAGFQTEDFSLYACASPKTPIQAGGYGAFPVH
DC50 [nM],Emax [%],DC50 (formic acid) [nM],HiBit 24 h Emax (formic acid) [%],HiBit 24 h Emax [%],SMILES
8,18,,,,"CCN(C)S(=O)(=O)Nc1ccc(F)c(C(=O)c2c[nH]c3ncc(-c4cnc(N5CCC(NC(=O)CN6CCC(c7ccc(NC8CCC(=O)NC8=O)cc7)CC6)CC5)nc4)cc23)c1F (centres unmarked) [Example A62, 2-[4-[4-[(2,6-Dioxopiperidin-3-yl)amino]phenyl]piperidin-1-yl]-N-[1-[5-[3-[3-[[ethyl(methyl)sulfamoyl]amino]-2,6-difluorobenzoyl]-1H-pyrrolo[2,3-b]pyridin-5-yl]pyrimidin-2-yl]piperidin-4-yl]acetamide;formic acid]"
67,13,,,,"CCN(C)S(=O)(=O)Nc1ccc(F)c(C(=O)c2c[nH]c3ncc(-c4ccc(N5CCC(NC(=O)CN6CCC(c7ccc(OC8CCC(=O)NC8=O)cn7)CC6)CC5)cc4)cc23)c1F (centres unmarked) [Example A64, 2-[4-[5-(2,6-Dioxopiperidin-3-yl)oxypyridin-2-yl]piperidin-1-yl]-N-[1-[4-[3-[3-[[ethyl(methyl)sulfamoyl]amino]-2,6-difluorobenzoyl]-1H-pyrrolo[2,3-b]pyridin-5-yl]phenyl]piperidin-4-yl]acetamide;formic acid]"
151,18,,,,"CCN(C)S(=O)(=O)Nc1ccc(F)c(C(=O)c2c[nH]c3ncc(-c4ccc(N5CCC(NC(=O)CN6CCC(c7ccc(OC8CCC(=O)NC8=O)cn7)CC6)CC5)nc4)cc23)c1F (centres unmarked) [Example A65, 2-[4-[5-(2,6-Dioxopiperidin-3-yl)oxypyridin-2-yl]piperidin-1-yl]-N-[1-[5-[3-[3-[[ethyl(methyl)sulfamoyl]amino]-2,6-difluorobenzoyl]-1H-pyrrolo[2,3-b]pyridin-5-yl]pyridin-2-yl]piperidin-4-yl]acetamide;formic acid]"
17,13,,,,"CCN(C)S(=O)(=O)Nc1ccc(F)c(C(=O)c2c[nH]c3ncc(-c4ccc(N5CCC(NC(=O)CN6CCC(c7ccc(NC8CCC(=O)NC8=O)cc7)CC6)CC5)nc4)cc23)c1F (centres unmarked) [Example A66, 2-[4-[4-[(2,6-Dioxopiperidin-3-yl)amino]phenyl]piperidin-1-yl]-N-[1-[5-[3-[3-[[ethyl(methyl)sulfamoyl]amino]-2,6-difluorobenzoyl]-1H-pyrrolo[2,3-b]pyridin-5-yl]pyridin-2-yl]piperidin-4-yl]acetamide; formic acid]"
,,7,11,,"CCN(C)S(=O)(=O)Nc1ccc(F)c(C(=O)c2c[nH]c3ncc(-c4ccc(N5CCC(NC(=O)CN6CCC(c7ccc(NC8CCC(=O)NC8=O)cc7)CC6)CC5)cc4)cc23)c1F.O=CO (centres unmarked) [Example A67, 2-[4-[4-[(2,6-Dioxopiperidin-3-yl)amino]phenyl]piperidin-1-yl]-N-[1-[4-[3-[3-[[ethyl(methyl)sulfamoyl]amino]-2,6-difluorobenzoyl]-1H-pyrrolo[2,3-b]pyridin-5-yl]phenyl]piperidin-4-yl]acetamide; formic acid]"
50,11,,,,"CCN(C)S(=O)(=O)Nc1ccc(F)c(C(=O)c2c[nH]c3ncc(-c4cnc(N5CCN(C(=O)CN6CCN(c7ccc(OC8CCC(=O)NC8=O)cn7)CC6)CC5)nc4)cc23)c1F (centres unmarked) [Example A68, 5-[2-[4-[2-[4-[5-(2,6-Dioxopiperidin-3-yl)oxypyridin-2-yl]piperazin-1-yl]acetyl]piperazin-1-yl]pyrimidin-5-yl]-3-[3-[[ethyl(methyl)sulfamoyl]amino]-2,6-difluorobenzoyl]-1H-pyrrolo[2,3-b]pyridine]"
7,,,,12,"CCN(C)S(=O)(=O)Nc1ccc(F)c(C(=O)c2c[nH]c3ncc(-c4cnc(N5CCN(C(=O)CN6CCC(c7ccc(NC8CCC(=O)NC8=O)cn7)CC6)CC5)nc4)cc23)c1F (centres unmarked) [Example A69, 5-[2-[4-[2-[4-[5-[(2,6-Dioxopiperidin-3-yl)amino]pyridin-2-yl]piperidin-1-yl]acetyl]piperazin-1-yl]pyrimidin-5-yl]-3-[3-[[ethyl(methyl)sulfamoyl]amino]-2,6-difluorobenzoyl]-1H-pyrrolo[2,3-b]pyridine]"

# Source: US12559492B2, “BRAF degraders” (C4 Therapeutics, Inc., priority 2020, dated 2026)
